Test results taken from patent publication US6362207B1, “Methods of treating viral infections with benzimidazoles” (priority 1995, dated 2002).

Experiments:
MV522 = experiment: Lung cancer model MV522 after Taxol, tumor weight; type: in vivo, mice
Description: The dose response effect of carbendazim in mice infected with various cancer types was studied in standard screening tests.
The results of these studies conducted to study the dosage response of carbendazim on various cancer types are summarized below. […] Efficacy of carbendazim has been shown in the following cancers:
At doses of 2000, 3000, 4000 and 5000 (mg/kg given twice weekly, p.o.) tumor growth was suppressed in a dose response and the tumor was shrunk in the 5000 mg/kg group. Day 1 is the start of the treatment with carbendazim.

[1] = tested on: HIV-1 in ACH-2 cells (T cell line A3.01); experiment: Additional chronic HIV studies, T cells; type: cell-based; details: concentration not given
Description: Chronic HIV-1 infected cells U1 were derived from an acute HIV-1 infection of the promonocytic cell line, U937. The chronic HIV-1 infected cells, ACH-2 were derived from an acute HIV-1 infection of the T cell line, A3.01.
These cells were cultured in medium and the phorbol ester, PMA. PMA causes the cells (both U1 and ACH-2) to be activated and not divide but it also causes the U-1 cells to differentiate. […] Cell viability was measured when these cell lines were treated with the test compound.
Both cell lines constituitively produce a small amount of HIV-1. ACH-2 cell lines tend to produce more HIV-1 than U1 cells as shown by p24 ELISA. When either cell line is cultured in the presence of PMA there is an increase in the quantity of HIV-1 produced as measured by the p24 antigen ELISA.
In addition, the number of […] positive HIV mRNA expressing cells per microscopic field is measured. Comparisons can be made from these numbers since the same number of cells were adhered to the glass slides for each drug concentration 10×10^6 cells/ml).
These cells were treated with test samples. […] The positive control was interferon which suppressed HIV monocytes replication by 80%.

[2] = tested on: MCF7 (breast cancer) cells; experiment: Apoptosis study (TdT assay) and cell growth; type: cell-based, human
Description: Summary of test results: The extent of apoptosis is measured in human tumor cell lines after treatment for 1, 2, 3 and 4 days with carbendazim. At each of these time points, the cells are harvested and assayed using the terminal deoxynucleotidyl transferase (TdT) assays. Both microscopy and flow cytometry were used for the TdT assay.
In MCF7, HT29, B16 and SK-MES cell lines, there was a concentration dependent effect on cell growth. […] After completion of the studies on the MCF7 and HT29 cell lines, it was evident that the 0.1 μg/ml concentration had little effect on either apoptosis or cell growth. Therefore subsequent assays were with 5 μg/ml instead of 0.1 μg/ml.
However, at 10 μg/ml the increase in apoptosis was evident at days 3 and 4. The increase in apoptosis was low, less than 10% at the high concentration.

Work on `COC(=O)Nc1nc2ccccc2[nH]1` [carbendazim, 2-methoxycarbonylamino-benzimidazole] yielded a tumor weight (MV522; 2000 mg/kg twice weekly p.o., c1-c3 = day 59, 63, 66, 2000 mg/kg, day 59) of 214.9 mg, a tumor weight (MV522; 2000 mg/kg twice weekly p.o., c1-c3 = day 59, 63, 66, 2000 mg/kg, day 63) of 193.7 mg and a tumor weight (MV522; 2000 mg/kg twice weekly p.o., c1-c3 = day 59, 63, 66, 2000 mg/kg, day 66) of 188.9 mg. The tumor weight (MV522; 3000 mg/kg twice weekly p.o., c1-c3 = day 59, 63, 66, 3000 mg/kg, day 59) was 75.4 mg, the tumor weight (MV522; 3000 mg/kg twice weekly p.o., c1-c3 = day 59, 63, 66, 3000 mg/kg, day 63) was 77 mg and the tumor weight (MV522; 3000 mg/kg twice weekly p.o., c1-c3 = day 59, 63, 66, 3000 mg/kg, day 66) was 94.5 mg. For the same compound, the “increase of T-cell HIV replication” value [1] was 44%, the increase in apoptosis ([2]; 10 μg/ml (high concentration), days 3 and 4) was “below 10%” and the cell growth ([2]; below 10 μg/ml) was “not significantly affected”.
